28 compounds from PMC8474119, “Discovery and SAR Evolution of Pyrazole Azabicyclo[3.2.1]octane Sulfonamides as a Novel Class of Non-Covalent N-Acylethanolamine-Hydrolyzing Acid Amidase (NAAA) Inhibitors for Oral Administration” (Journal of Medicinal Chemistry, 2021) can be followed below.

For the experiment, the target named is T1, h-NAAA (Homo sapiens, UniProt Q02083).
T1 construct: made in house; host or cells: HEK-293 cells stably overexpressing human NAAA; enzyme-enriched (lysosomal) lysate
T1 sequence (Q02083 29-125 limits assumed): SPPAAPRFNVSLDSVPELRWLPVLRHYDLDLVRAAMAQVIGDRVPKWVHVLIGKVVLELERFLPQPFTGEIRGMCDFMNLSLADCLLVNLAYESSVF
T1 sequence (Q02083 126-359 limits assumed): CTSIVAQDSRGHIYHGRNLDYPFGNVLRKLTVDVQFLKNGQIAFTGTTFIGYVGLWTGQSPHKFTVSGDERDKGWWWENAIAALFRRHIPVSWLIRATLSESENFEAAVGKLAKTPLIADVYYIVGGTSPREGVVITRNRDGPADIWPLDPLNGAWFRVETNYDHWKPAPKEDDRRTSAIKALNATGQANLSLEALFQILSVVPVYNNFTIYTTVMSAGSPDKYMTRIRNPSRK
In words: Fluorogenic human-NAAA assay (h-NAAA, fluo.). Format: biochemical. The conditions noted are these: for LipE: LipE = pIC50 – c Log P (h-NAAA); for pIC50: Table S1; for pIC50 / IC50 / h-NAAA inhibitory activity, in words: h-NAAA (fluo.); for IC50: mean ± SD (n ≥ 3), n.a.: not active @50 μM (<10% inhibition). As for the experimental part: Human recombinant proteins were obtained from HEK-293 stable overexpressing human NAAA, AC, and FAAH-1 cell lines, respectively. Cells were grown in Dulbecco’s modified Eagle medium (DMEM) containing 10% FBS, 1% glutamine, 1 mM sodium pyruvate, and 500 μg/mL geneticin (G418). To obtain a high-density cell proliferation, h-NAAA-HEK-293 cells were grown in BelloCell-500 bottle, a compact bioreactor. On the contrary, h-AC and h-FAAH-1-HEK-293 cells were grown in 150 mm dishes and scraped off with cold PBS 1× pH 7.4 at 80% confluence. Cell pellets were collected and stored at −80 °C until protein preparation.
HEK-293 cells stably transfected with the human NAAA or human AC coding sequences were used as the enzyme source. Cells were suspended in 20 mM Tris-HCl (pH 7.4) with 0.32 M sucrose, sonicated, and centrifuged at 800g for 30 min at 4 °C. Supernatants were then centrifuged at 12,000g for 30 min at 4 °C. Pellets were resuspended in PBS buffer (pH 7.4) and subjected to three freeze-thaw cycles at −80 °C. The suspension was finally centrifuged at 105,000g for 1 h at 4 °C, supernatants were collected, protein concentration was measured, and samples were aliquoted and stored at −80 °C until use.
The assay was run in 96-well microplates (Black OptiPlate-96 F; PerkinElmer, Massachusetts, USA), in a total reaction volume of 200 μL. h-NAAA protein preparation (4 μg) was preincubated for 30 min with various concentrations of test compounds or vehicle control (DMSO 5%) in 100 mM citrate/phosphate buffer (pH 4.5) containing 3.0 mM DTT, 0.1% NP40, 0.05% BSA, and 150 mM NaCl. The background (no activity) samples were prepared using assay buffer without h-NAAA and DMSO (5%). N-(4-methyl-2-oxo-chromen-7-yl)-hexadecanamide (PAMCA)[60] was used as a substrate (2 μM) and the reaction was carried out for 50 min at 37 °C. Fluorescence was measured with EnVision 2014 Multilabel Reader (PerkinElmer, Massachusetts, USA) using an excitation wavelength of 355 nm and an emission of 460 nm. IC50 values were calculated by non-linear regression analysis of log[concentration]/response curves generated with mean replicate values using a four-parameter Hill equation curve fitting with GraphPad Prism 5 (GraphPad Software Inc., CA, USA).

The structures appear in SMILES notation.

In the case of `Cc1n[nH]c(C)c1S(=O)(=O)N1CCC(Oc2cnccn2)CC1` [Compound 1, 2-((1-((3,5-Dimethyl-1H-pyrazol-4-yl)sulfonyl)piperidin-4-yl)oxy)pyrazine], the LipE is given as 6.3; the pIC50 (commonly the IC50 on a negative log10 scale, so that one unit is a factor of ten) came to 5.96; the IC50 (usually the point on the concentration scale where inhibition reaches its midpoint) worked out at 1090 ± 163 nM.
Consider `CCc1n[nH]c(CC)c1S(=O)(=O)N1CCC(Oc2cnccn2)CC1` [Compound 15, 2-((1-((3,5-Diethyl-1H-pyrazol-4-yl)sulfonyl)piperidin-4-yl)oxy)pyrazine], for which the IC50 stood at 1110 ± 310 nM.
On the same count and under the same terms, to `Cc1n[nH]c(C)c1S(=O)(=O)N1[C@@H]2CC[C@H]1C[C@@H](Oc1ccc(C(C)C)cc1)C2` [Compound 38, (1R,3r,5S)-8-((3,5-Dimethyl-1H-pyrazol-4-yl)sulfonyl)-3-(4-isopropylphenoxy)-8-azabicyclo[3.2.1]octane] belongs 744 ± 90 nM.
Same read-out and setting: to `Cc1n[nH]c(C)c1S(=O)(=O)N1[C@@H]2CC[C@H]1C[C@@H](Oc1ccc(F)cc1)C2` [Compound 46, (1R,3r,5S)-8-((3,5-Dimethyl-1H-pyrazol-4-yl)sulfonyl)-3-(4-fluorophenoxy)-8-azabicyclo[3.2.1]octane] belongs 143 ± 7 nM.
For the compound `Cc1n[nH]c(C)c1S(=O)(=O)N1CC(Oc2cnccn2)C1` [Compound 18, 2-((1-((3,5-Dimethyl-1H-pyrazol-4-yl)sulfonyl)azetidin-3-yl)oxy)pyrazine], the “h-NAAA inhibitory activity, in words” value was “complete loss of enzyme inhibition”.
Consider `Cc1n[nH]c(C)c1S(=O)(=O)N1[C@@H]2CC[C@H]1C[C@@H](Oc1ccc(C(F)(F)F)cc1)C2` [Compound 43, (1R,3r,5S)-8-((3,5-Dimethyl-1H-pyrazol-4-yl)sulfonyl)-3-(4-(trifluoromethyl)phenoxy)-8-azabicyclo[3.2.1]octane], for which the midpoint of inhibition, the IC50, lay at 212 ± 20 nM.
Take `Cc1n[nH]c(C)c1S(=O)(=O)N1C[C@H]2CCC[C@@H](C1)[C@H]2Oc1cnccn1` [Compound 28, (1R,5S,9r)-3-((3,5-Dimethyl-1H-pyrazol-4-yl)sulfonyl)-9-(pyrazin-2-yloxy)-3-azabicyclo[3.3.1]nonane]: the “h-NAAA inhibitory activity, in words” value was “inactive”.
For `Cc1[nH]nc(C(C)(C)C)c1S(=O)(=O)N1CCC(Oc2cnccn2)CC1` [Compound 12, 2-((1-((3-(tert-Butyl)-5-methyl-1H-pyrazol-4-yl)sulfonyl)piperidin-4-yl)oxy)pyrazine], the IC50 was 780 ± 120 nM.
For `CCc1ccc(O[C@H]2C[C@H]3CC[C@@H](C2)N3S(=O)(=O)c2c(C)n[nH]c2C)cc1` [Compound 37, (1R,3r,5S)-8-((3,5-Dimethyl-1H-pyrazol-4-yl)sulfonyl)-3-(4-ethylphenoxy)-8-azabicyclo[3.2.1]octane], the IC50 turned out to be 51 ± 5 nM.
In the case of `Cc1[nH]nc(C(C)C)c1S(=O)(=O)N1CCC(Oc2cnccn2)CC1` [Compound 11, 2-((1-((3-isoPropyl-5-methyl-1H-pyrazol-4-yl)sulfonyl)piperidin-4-yl)oxy)pyrazine], inhibition was half-maximal at 640 ± 140 nM (IC50).
In the case of `CCCOc1ccc(O[C@H]2C[C@H]3CC[C@@H](C2)N3S(=O)(=O)c2c(C)n[nH]c2C)cc1` [Compound 47, (1R,3r,5S)-8-((3,5-Dimethyl-1H-pyrazol-4-yl)sulfonyl)-3-(4-propoxyphenoxy)-8-azabicyclo[3.2.1]octane], the LipE is 3.55, the pIC50 was found to be 6.35 and the concentration for half-maximal inhibition (IC50) stood at 450 ± 70 nM.
`Cc1n[nH]c(C)c1S(=O)(=O)N1[C@@H]2CCC[C@H]1C[C@@H](Oc1cnccn1)C2` [Compound 25, (1R,3r,5S)-9-((3,5-Dimethyl-1H-pyrazol-4-yl)sulfonyl)-3-(pyrazin-2-yloxy)-9-azabicyclo[3.3.1]nonane] returned an IC50 of 370 ± 30 nM.
Still for that read-out and setting: to `Cc1n[nH]c(C)c1S(=O)(=O)N1C[C@H]2CC[C@@H](C1)[C@H]2Oc1cnccn1` [Compound 27, (1R,5S,8r)-3-((3,5-Dimethyl-1H-pyrazol-4-yl)sulfonyl)-8-(pyrazin-2-yloxy)-3-azabicyclo[3.2.1]octane] belongs 15400 ± 3260 nM.
`CCOCc1ccc(O[C@H]2C[C@H]3CC[C@@H](C2)N3S(=O)(=O)c2c(C)n[nH]c2C)cc1` [Compound 48, (1R,3r,5S)-8-((3,5-Dimethyl-1H-pyrazol-4-yl)sulfonyl)-3-(4-(ethoxymethyl)phenoxy)-8-azabicyclo[3.2.1]octane]: the LipE is recorded as 5.70, the negative logarithm of the IC50 (pIC50) is 7.79 and half-maximal inhibition (IC50) required 16 ± 2 nM.
`Cc1cccc(C)c1S(=O)(=O)N1CCC(Oc2cnccn2)CC1` [Compound 7, 2-((1-((2,6-Dimethylphenyl)sulfonyl)piperidin-4-yl)oxy)pyrazine]: 4480 ± 940 nM corresponded to half-maximal inhibition (IC50).
Take `Cc1nn(C)c(C)c1S(=O)(=O)N1CCC(Oc2cnccn2)CC1` [Compound 4, 2-((1-((1,3,5-Trimethyl-1H-pyrazol-4-yl)sulfonyl)piperidin-4-yl)oxy)pyrazine]: the “h-NAAA inhibitory activity, in words” value is reported as “complete loss of inhibitory effect”.
Consider `Cc1n[nH]c(C)c1C(=O)N1CCC(Oc2cnccn2)CC1` [Compound 16, (3,5-Dimethyl-1H-pyrazol-4-yl)(4-(pyrazin-2-yloxy)piperidin-1-yl)methanone], for which the “h-NAAA inhibitory activity, in words” value is on record as “complete loss of activity”.
For `Cc1n[nH]c(C)c1S(=O)(=O)N1CCC(c2cnccn2)CC1` [Compound 24, 2-(1-((3,5-Dimethyl-1H-pyrazol-4-yl)sulfonyl)piperidin-4-yl)pyrazine], the “h-NAAA inhibitory activity, in words” value is on record as “abolished the inhibitory activity”.
Take `Cc1noc(C)c1S(=O)(=O)N1CCC(Oc2cnccn2)CC1` [Compound 5, 3,5-Dimethyl-4-((4-(pyrazin-2-yloxy)piperidin-1-yl)sulfonyl)isoxazole]: the “h-NAAA inhibitory activity, in words” value is listed as “complete loss of inhibitory effect”.
Regarding `Cc1ccccc1O[C@H]1C[C@H]2CC[C@@H](C1)N2S(=O)(=O)c1c(C)n[nH]c1C` [Compound 36, (1R,3r,5S)-8-((3,5-Dimethyl-1H-pyrazol-4-yl)sulfonyl)-3-(o-tolyloxy)-8-azabicyclo[3.2.1]octane], the half-maximal inhibitory concentration (IC50) was 291 ± 10 nM.
Consider `CCCc1n[nH]c(C)c1S(=O)(=O)N1CCC(Oc2cnccn2)CC1` [Compound 9, 2-((1-((5-Methyl-3-propyl-1H-pyrazol-4-yl)sulfonyl)piperidin-4-yl)oxy)pyrazine], for which the IC50 worked out at 330 ± 40 nM.
The compound `CCc1n[nH]c(C)c1S(=O)(=O)N1CCC(Oc2cnccn2)CC1` [Compound 8, 2-((1-((3-Ethyl-5-methyl-1H-pyrazol-4-yl)sulfonyl)piperidin-4-yl)oxy)pyrazine] came in with an IC50 of 620 ± 120 nM.
Still for that read-out and setting: to `Cc1n[nH]c(C)c1S(=O)(=O)N1[C@@H]2CC[C@H]1C[C@@H](Oc1ccccc1)C2` [Compound 31, (1R,3r,5S)-8-((3,5-Dimethyl-1H-pyrazol-4-yl)sulfonyl)-3-phenoxy-8-azabicyclo[3.2.1]octane] belongs 93 ± 20 nM; to `Cc1n[nH]c(C)c1S(=O)(=O)N(C)CCCOc1cnccn1` [Compound 19, N,3,5-Trimethyl-N-(3-(pyrazin-2-yloxy)propyl)-1H-pyrazole-4-Sulfonamide], 4290 ± 970 nM; to `Cc1n[nH]c(C)c1S(=O)(=O)N1[C@@H]2CC[C@H]1C[C@@H](Oc1ccc(C#N)cc1)C2` [Compound 45], 757 ± 80 nM.
In turn, `Cc1n[nH]c(C)c1S(=O)(=O)N1[C@@H]2CC[C@H]1C[C@@H](Oc1cnccn1)C2` [Compound 20, (1R,3r,5S)-8-((3,5-Dimethyl-1H-pyrazol-4-yl)sulfonyl)-3-(pyrazin-2-yloxy)-8-azabicyclo[3.2.1]octane] had an IC50 of 230 ± 10 nM.
Regarding `Cc1n[nH]cc1S(=O)(=O)N1CCC(Oc2cnccn2)CC1` [Compound 2, 2-((1-((3-Methyl-1H-pyrazol-4-yl)sulfonyl)piperidin-4-yl)oxy)pyrazine], the “h-NAAA inhibitory activity, in words” value is “devoid of any activity”.
With `COc1n[nH]c(C)c1S(=O)(=O)N1CCC(Oc2cnccn2)CC1` [Compound 13, 2-((1-((3-Methoxy-5-methyl-1H-pyrazol-4-yl)sulfonyl)piperidin-4-yl)oxy)pyrazine], the “h-NAAA inhibitory activity, in words” value is given as “no detectable activity”.
